{"source": "patent US7326717B2", "about": "“Pyrimidine n-oxide compounds for stimulating the growth of keratin fibers and/or reducing loss thereof” (L'Oreal, priority 1930, dated 2008)", "key": {"[1]": {"tested_on": "lysyl-hydroxylase messenger RNA", "assay": "Inhibition of the expression of LH (RT-PCR) in normal human dermal fibroblasts", "format": "cell-based", "conditions": "for inhibition of the expression of lysyl-hydroxylase messenger RNA: human fibroblasts in culture, compound 1′ at 10 μM; for LH/actine ratio: percentage of expression of LH over β-Actin internal standard; for LH/actine ratio / LH/collagen ratio: control = 100, NHDF treated 6 hours; for LH/collagen ratio: percentage of expression of LH relative to collagen messenger RNA", "description": "Normal human dermal fibroblasts (NHDF) are precultured at high density for 48 hours in MEM199 medium (Gibco) supplemented with 1% foetal calf serum and then treated or not treated with compound 1′ or 1 for 6 hours. The cell carpets are then washed with phosphate-buffered saline (PBS) and then frozen in Tri-reagent medium (Sigma). The total RNAs obtained are extracted with Tri-reagent (Sigma) according to the supplier's protocol. A further extraction is performed using chloroform and the RNAs are then precipitated from isopropanol. After removal of the contaminating traces of DNA by treatment with the DNA-free system (Ambion), a reverse transcription of the RNAs into complementary DNA is performed in the presence of oligo dT and the enzyme superscript II (Gibco).\nA pair of primers allowing the amplification of specific LH fragments (516 bp; Mahéet al., 1996, Skin Pharmacol. 9, 177-183) and of specific primers of the sequence of collagen I (420 pb) and β-Actin (500 bp, internal reaction standard) were used for the polymerization chain reaction (PCR) with the PCR Supermix system (Gibco) under the following conditions: 94° C. for 2 minutes and then 25 times (95° C.-1 min, 55° C.-1 min, 72° C.-2 min), the chain reaction being terminated by an elongation cycle of 7 minutes at 72° C.\nThe amplified fragments are then analysed by electrophoresis on agarose gel (1.5%) in the presence of ethidium bromide. The images were captured on GelPrint 2000i (Biophotonics Corp); the densitometric analyses were obtained using the One D-Scan software (Scanalytics).\nThe results are expressed as a percentage of expression of LH over the β-Actin internal standard (LH/actine) or relative to the collagen messenger RNA (LH/collagen). A reduction of one or of the two percentages indicates a transcriptional inhibition of the relative expression of lysyl hydroxylase and, by analogy, with the molecule 2-4 DPO, (Mahéet al. 1996, Skin Pharmacol. 9. 177-183) a possible use for limiting the abnormal crosslinking of collagen in alopecia."}, "[2]": {"tested_on": "inducible NO-synthase (NOS2)", "assay": "Modulation of the induction of NOS2 on normal human keratinocytes (NO-donor activity, nitrite/nitrate measurement)", "format": "cell-based", "conditions": "for % inhibition: nitrites and nitrates measured; for NO-donating effect: conclusion from the table", "description": "The activity of compounds A and A′ on inducible NO-synthase was evaluated in the test described by Heck et al. (J. B. C., Vol. 267, No. 30, 21277-21280, 25 Oct. 1992), test of “Modulation of the induction of NOS2 (Inducible Nitric Oxide Synthase) on normal human keratinocytes”. The aim of this test is to evaluate the final nitrate and nitrite concentration, after stimulation of NO-synthase 2 or application of an NO donor; it is performed by comparison with the stimulation of cytokine-inducible NO-synthase. The final nitrate and nitrite concentration corresponds to the concentration of NO released.\nThe test is performed on a culture of normal human keratinocytes obtained from samples. The induction of inducible NO-synthase (NOS2) was brought about by the addition of a combination of several cytokines to the culture medium. The test products were applied at three concentrations ranging from […] to 1000 μM.\nThe following controls were introduced into the test: • A: Positive control (induction of the enzyme on stimulated cells): mixtures of interferon-γ (1000 μ/ml) and of interleukin 1-β (100 μ/ml) corresponding to […]; • B: Basal control of the unstimulated cells (without cytokines), corresponding to […].\nTo determine the activity of the test products, the amount of stable NO reaction products (nitrites and nitrates) is measured using the “Nitric Colorimetric Assay” kit sold by the company Boehringer under the reference 1756.28.\nThe compounds were tested at concentrations of 100 μM, 500 μM and 1000 μM in ethanol."}, "[3]": {"tested_on": "lysyl-hydroxylase", "conditions": "described in WO 96/09048; cited from earlier work"}, "[4]": {"tested_on": "type L calcium-channel", "conditions": "read-out: IC50Ca2+ (concentration that inhibits 50% of the release of Ca2+); cited from earlier work"}, "[5]": {"conditions": "100 μM in ethanol, 100 = cytokine-stimulated control A, 0 = unstimulated control B"}}}
{"smiles": "Nc1nccc(NCCCCO[N+](=O)[O-])[n+]1[O-]", "note": "[Compound 1]", "values": [{"measurement": "inhibition of the expression of lysyl-hydroxylase messenger RNA", "setting": "[1]", "value": "no inhibitory activity"}, {"measurement": "LH/actine ratio", "setting": "[1]", "value": 123, "unit": "%"}, {"measurement": "LH/collagen ratio", "setting": "[1]", "value": 133, "unit": "%"}, {"measurement": "% inhibition", "setting": "[2]; [5]", "value": 0, "unit": "%"}, {"measurement": "% inhibition", "setting": "[2]; 500 μM in ethanol, 100 = control A, 0 = control B, NE means no effect", "value": 18.23, "unit": "%"}, {"measurement": "NO-donating effect", "setting": "[2]", "value": "have an NO-donating effect"}]}
{"smiles": "Nc1nccc(NCCCCO)[n+]1[O-]", "note": "[Compound 1′]", "values": [{"measurement": "inhibition of the expression of lysyl-hydroxylase messenger RNA", "setting": "[1]", "value": "−24% to −36%"}, {"measurement": "LH/actine ratio", "setting": "[1]", "value": 64, "unit": "%"}, {"measurement": "LH/collagen ratio", "setting": "[1]", "value": 76, "unit": "%"}]}
{"smiles": "Nc1nccc(NCCO[N+](=O)[O-])[n+]1[O-]", "note": "[Compound 2]", "values": [{"measurement": "% inhibition", "setting": "[2]; [5]", "value": 38.77, "unit": "%"}, {"measurement": "NO-donating effect", "setting": "[2]", "value": "have an NO-donating effect"}]}
{"smiles": "Nc1nccc(NCCCO[N+](=O)[O-])[n+]1[O-]", "note": "[Compound 3]", "values": [{"measurement": "NO-donating effect", "setting": "[2]", "value": "have an NO-donating effect"}]}
{"smiles": "Nc1cc[n+]([O-])c(N)n1", "note": "[aminexil, 2,4-diaminopyrimidine N-oxide]", "values": [{"measurement": "inhibitory activity on the expression of lysyl-hydroxylase", "setting": "[3]", "value": "has inhibitory activity on the expression of lysyl-hydroxylase"}]}
{"smiles": "COc1ccc(CCN(C)CCCC(C#N)(c2ccc(OC)c(OC)c2)C(C)C)cc1OC", "note": "(centres unmarked) [verapamil]", "values": [{"measurement": "IC50", "setting": "[4]", "value": 38, "unit": "nM"}]}
